From US20180271470A1, “METHODS FOR QUANTIFYING PANCREATIC BETA CELL FUNCTION AND MASS PROPERTIES WITH RADIOMANGANESE POSITRON EMISSION TOMOGRAPHY” (Wisconsin Alumni Research Foundation, priority 2017, published 2018)

Key:
[1] = OLINDA dosimetry calculations for Mn-51 and daughter Cr-51; parameters: species or system human; details: OLINDA input
Experimental: Due to the rapid blood clearance of Mn^2+, OLINDA (Organ Level INternal Dose Assessment) dosimetry calculations were performed assuming instant compartment localization with organ activity fractions equal to those measured by ex vivo biodistribution herein. Based on the previously measured lengthy organ residence times of Mn^2+, it was also assumed that the effective organ clearance half-life (Ter) was equal to the radioactive half-life of Mn-51 (t1/2: 45.6 min). It was also assumed that Mn-51 injections were 100% radionuclidically pure. In regards to the daughter isotope, Cr-51 (t1/2: 27.7 d), it was assumed that the activity remained in same organ compartments as the parent Mn-51 biodistribution without biological clearance. Standard radiation weighting factors were used (γ=1, β=1). Based on these assumptions, effective dose (ED) and effective dose equivalent (EDE) (units of mSv/MBq) were calculated for a standard adult male and female.

[2] = system: pancreatic uptake of ^52Mn^2+; test: One hour biodistribution of ^52Mn^2+ in anesthetized (1% isoflurane) or awake mice; format: in vivo; details: 1% isoflurane vs awake, 1 h post injection, regardless of administration regime or glucose stimulation
Experimental: Previous reports have shown that most volatile anesthetics, including isoflurane, impair insulin secretion by inhibiting the deactivation of KATP channels. Plausibly, the observed decrease in pancreatic uptake of ^52Mn^2+ resulted from mice being anesthetized through the full extent of the studies during the dynamic PET scans. To investigate the impact of isoflurane anesthesia on pancreatic uptake, one hour post injection biodistribution experiments were performed under different administration conditions in either anesthetized (1% isoflurane) or awake mice.

[3] = ^52Mn^2+ PET and biodistribution in STZ type-1 diabetes model; format: in vivo, ICR mice; details: ICR female mice, single STZ 180 mg/kg IP, four days after induction
Experimental: Type 1 diabetes was induced in female ICR mice via a single IP injection of 180 mg/kg streptozotocin (STZ; MP Biomedical, LLC, Santa Ana, Calif.), a toxin that selectively destroys pancreatic beta cell. The injectable STZ solution (12.5 mg/mL) was prepared freshly in phosphate buffered saline (PBS). The weight of each mouse was measured daily, and blood glucose levels were recorded every other day with a glucometer (TRUEresult, Trividia Health Inc., Fort Lauderdale, Fla.) using blood samples collected from the tail vein. Mice were considered diabetic after two consecutive blood glucose readings above 250 mg/dL and were used for PET imaging studies one week after the injection of STZ. To evaluate ^52Mn^2+ pancreatic uptake on diabetic mice, 0.74 MBq (20 μCi) of activity were administered IV and static PET images recorded one hour after administration of the tracer. Ex vivo biodistribution was carried out following PET acquisition.

[4] = system: ^52Mn^2+ pancreatic uptake; test: Pharmacological manipulation of ^52Mn^2+ pancreatic uptake in vivo (PET and biodistribution); parameters: species or system ICR mice
Experimental: To investigate the specificity of ^52Mn^2+ for beta cells, a series of studies were performed where ^52Mn^2+ uptake was manipulated through the pharmacologic stimulation or inhibition of the insulin secretory pathway. In these experiments, 0.74-1.85 MBq (20-50 μCi) of ^52Mn^2+ was administered IV into either female ICR or C57BL/6J mice and static PET scans were acquired at one hour post injection. During tracer administration, mice were awake. Mice were only anaesthetized by isoflurane (1%) immediately before PET imaging.
To corroborate the correlation between ^52Mn^2+ pancreatic uptake and the mechanism of insulin release in beta cells, the insulin secretory pathways were stimulated in vivo using glucose and glibendamide (Tocris Biosciences, Bristol, UK), which promotes insulin release in beta cells via blockade of ATP-sensitive potassium channel (KATP). Mice were injected intraperitoneally (IP) with 100 μL of glucose (1 g/kg) or glucose (1 g/kg)+glibenclamide (5 mg/kg) in PBS, 15 min before the IV injection of 0.74-1.85 MBq (20-50 μCi)^52Mn^2+. Static PET scans were acquired one hour after the injection of the radiotracer, after which ex vivo biodistribution was performed.
Whole-body PET scans were acquired at one hour post injection, after which ex vivo biodistribution was performed.

[5] = system: isolated ob/ob mouse islets; test: Uptake of ^52Mn^2+ in isolated islets under stimulatory or inhibitory conditions; format: cell-based; details: 15 min incubation
Experimental: Mouse pancreatic islets were isolated by collagenase digestion. Briefly, mice were placed under shallow anesthesia and sacrificed via cervical dislocation. The mouse common bile duct was cannulized and 3-5 mL of an ice-cold solution containing type XI collagenase (0.5 mg/mL; Sigma Aldrich, St. Louis, Mo.) and bovine serum albumin (BSA; 0.2 mg/mL; Sigma Aldrich, St. Louis, Mo.) in Hank's balanced salt solution (HBSS; Invitrogen, Carlsbad, Calif.) was injected into the mouse pancreas. After inflation, the pancreas was removed, placed in a glass vial containing 5 mL of the collagenase solution, and incubated in a shaking water bath at 37° C. Samples were digested for approximately 30 min after which the digests were centrifuged at 50×g for 2 min and islet pellets were washed three times with 30 mL of an ice-cold BSA (0.2 mg/mL) in HBSS solution. The pellet was resuspended and islets handpicked into 35 mm petri dishes. Following isolation, islets were placed in RPMI1640 media supplemented with penicillin (100 U/mL; Invitrogen), streptomycin (100 μg/mL; Invitrogen), and FBS [10% (wt/vol); Sigma] and incubated overnight at 37° C. in a 5% CO2 atmosphere.
The uptake of ^52Mn^2+ by murine islets of Langerhans was determined under several stimulatory or inhibitory conditions. Batches of 50 islets were transferred into 0.45 μm filtered bottom 1 mL centrifuge vials (Thermo Fisher Scientific, Grand Island, N.Y.), 500 μL of Krebs-Ringer buffer (KRB: 118 mM NaCl, 5.4 mM KCl, 2.4 mM CaCl, 1.2 mM MgSO4, 1 mM […], 20 mM HEPES; pH 7.4) containing a low glucose concentration (1 mM D-glucose) were added and the islets incubated for 30 min at 37° C. After removing the supernatant following centrifugation at 50×g for 5 min, 250 μL of KRB containing glucose, diazoxide (50 μM; Tocris Biosciences, Bristol, UK), or tolbutamide (250 μM; Selleckchem, Houston, Tex.) were added, and the vials were spiked with 370 kBq (10 μCi) of ^52Mn^2+. After 15 min of incubation, the solutions were filtered and islets were washed three times with KRB. The ^52Mn^2+ radioactivity in the islet pellets were measured in an automated gamma counter (Perkin Elmer).

With `[51Cr]` [Cr-51] the “Number of disintigrations, Total Body” value ([1]; Total Body) was 7.20E+02 MBq-h/MBq, the “Number of disintigrations, Adrenals” value ([1]; source organ Adrenals) was 0.00E+00 MBq-h/MBq and the “Number of disintigrations, Brain” value ([1]; source organ Brain) was 3.93E+00 MBq-h/MBq. The “Number of disintigrations, Breasts” value ([1]; source organ Breasts) was 0.00E+00 MBq-h/MBq, the “Number of disintigrations, Cortical Bone” value ([1]; source organ Cortical Bone) was 7.48E−01 MBq-h/MBq and the “Number of disintigrations, Gallbladder Contents” value ([1]; source organ Gallbladder Contents) was 0.00E+00 MBq-h/MBq. For the same compound, the “Number of disintigrations, Heart Contents” value ([1]; source organ Heart Contents) was 0.00E+00 MBq-h/MBq, the “Number of disintigrations, Heart Wall” value ([1]; source organ Heart Wall) was 2.10E+01 MBq-h/MBq and the “Number of disintigrations, Kidneys” value ([1]; source organ Kidneys) was 6.12E+01 MBq-h/MBq. The “Number of disintigrations, LLI” value ([1]; source organ LLI) was 0.00E+00 MBq-h/MBq, the “Number of disintigrations, Liver” value ([1]; source organ Liver) was 5.58E+01 MBq-h/MBq and the “Number of disintigrations, Lungs” value ([1]; source organ Lungs) was 1.49E+01 MBq-h/MBq. For the same compound, the “Number of disintigrations, Muscle” value ([1]; source organ Muscle) was 1.93E+00 MBq-h/MBq, the “Number of disintigrations, Ovaries” value ([1]; source organ Ovaries) was 0.00E+00 MBq-h/MBq and the “Number of disintigrations, Pancreas” value ([1]; source organ Pancreas) was 3.64E+01 MBq-h/MBq. The “Number of disintigrations, Red Marrow” value ([1]; source organ Red Marrow) was 0.00E+00 MBq-h/MBq, the “Number of disintigrations, Small Intestine” value ([1]; source organ Small Intestine) was 0.00E+00 MBq-h/MBq and the “Number of disintigrations, Spleen” value ([1]; source organ Spleen) was 8.12E+00 MBq-h/MBq. The “Number of disintigrations, Stomach” value ([1]; source organ Stomach) was 1.23E+01 MBq-h/MBq, the “Number of disintigrations, Testes” value ([1]; source organ Testes) was 0.00E+00 MBq-h/MBq and the “Number of disintigrations, Thymus” value ([1]; source organ Thymus) was 0.00E+00 MBq-h/MBq. For the same compound, the “Number of disintigrations, Thyroid” value ([1]; source organ Thyroid) was 0.00E+00 MBq-h/MBq, the “Number of disintigrations, Trabecular Bone” value ([1]; source organ Trabecular Bone) was 0.00E+00 MBq-h/MBq and the “Number of disintigrations, ULI” value ([1]; source organ ULI) was 5.70E+00 MBq-h/MBq. The “Number of disintigrations, Urinary Bladder Contents” value ([1]; source organ Urinary Bladder Contents) was 0.00E+00 MBq-h/MBq and the “Number of disintigrations, Uterus/Uterine Wall” value ([1]; source organ Uterus/Uterine Wall) was 0.00E+00 MBq-h/MBq.

In the case of `FC(F)OC(Cl)C(F)(F)F` (centres unmarked) [Isoflurane], the “effect on accumulation of ^52Mn^2+ in the pancreas” value [2] is reported as “significantly inhibited”.

In the case of `CN(N=O)C(=O)N[C@@H]1[C@@H](O)[C@H](O)[C@@H](CO)O[C@@H]1O` [STZ, reference compound], the “blood glucose after induction” value [3] is reported as over 250 mg/dL.

For `CC1=NS(=O)(=O)c2cc(Cl)ccc2N1` [diazoxide, 7-Chloro-3-methyl-4H-1,2,4-benzothiadiazine 1,1-dioxide], the “decline in ^52Mn^2+ pancreatic uptake vs control” value ([4]; 20 mg/kg IP 10-15 min before IV ^52Mn^2+ bolus, PET 1 h post injection) was 44%, the “pancreatic ^52Mn^2+ uptake after drug (PET quantification)” value ([4]; 20 mg/kg IP 10-15 min before IV ^52Mn^2+ bolus, PET 1 h post injection, control 5.13±0.36 SUV) was 2.85±0.92 SUV and the “effect on PET signal within the pancreas” value ([4]; 20 mg/kg IP before ^52Mn^2+ bolus) was “significant (P<0.0001) abrogation”. For the same compound, the “effect on glucose-stimulated ^52Mn^2+ uptake by islets” value ([5]; diazoxide 50 μM added to 10 mM glucose) was “blocked”.

In the case of `COc1ccc(Cl)cc1C(=O)NCCc1ccc(S(=O)(=O)NC(=O)NC2CCCCC2)cc1` [glibenclamide], the “effect on pancreatic SUV values” ([4]; glibenclamide 5 mg/kg IP (with glucose 1 g/kg) 15 min before ^52Mn^2+, 1 h post injection) is reported as “significant enhancement”.

In the case of `OC[C@H]1OC(O)[C@H](O)[C@@H](O)[C@@H]1O` (some centres unmarked) [glucose], the “effect on ^52Mn^2+ uptake by islets” value ([5]; 10 mM glucose vs 1 mM glucose) is reported as “significantly enhanced”.

In the case of `CCCCNC(=O)NS(=O)(=O)c1ccc(C)cc1` [tolbutamide], the “effect on ^52Mn^2+ retention by islets” value ([5]; glucose and tolbutamide 250 μM) is reported as “significantly higher”.
